Results as given in patent EP4050002A1, “ANTI-PROLIFERATIVE AGENTS” (First Health Pharmaceuticals B.V., priority 2021, dated 2022).

Assays:
Plasma stability = assay type: in vitro ADME, Sprague Dawley rats; details: Rat plasma
Procedure: Plasma previously separated from whole blood in EDTA-treated tubes and frozen; blood samples obtained from healthy volunteers, Sprague Dawley rats and CD1 mice, was thawed at room temperature and centrifuged at 1400x RCF 4°C, for 15 minutes. Approximately 90% of the clear supernatant fraction was transferred to a separate tube and was used for the assay.
Stocks (1 mM and 25 µM) of test compound were prepared in acetonitrile:water (50:50 v/v). Plasma samples were heat inactivated at 54°C. 3 µl of 25 µM test compound were added to 72 µl of heat inactivated plasma. A 50 µL aliquot of the mixture was taken and crashed with 200 µl of acetonitrile containing Telmisartan 100 ng/ml as internal standard and was further processed along with other time points: 10, 30 60 and 120 minutes.
Final working stock of 1 µM was prepared by diluting 12 µl of 25 µM stock in 288 µl of plasma. The obtained solution (300 µl) of plasma containing the test compound was incubated for […] at 37°C in shaker water bath with gentle shaking. 50 µl aliquot of sample at 10, 30, 60 and 120 min was precipitated immediately with 200 µl of acetonitrile containing internal standard and centrifuged at 4000x RCF, 4°C for 20 minutes. 150 µl of supernatant was diluted with 150 µl of water and analyzed by LC-MS/MS.
The % remaining of the test substance was calculated as: (Peak Area ratio at time (min))/(Peak Area Ratio at 0 min) ^∗ 100
The API400 MS and Agilent 1260 Infinity LC were used. Mobile Phase included 10mM Ammonium acetate with 0.1% formic acid in MilliQ water, and Methanol. The column was Phenomenex, KINETIC EVO C18 100A 5u 50^∗4.6 mm, 10 µl injection volume.

DDX3X = DDX3X (Homo sapiens, UniProt O00571); assay: nanoDSF enzymatic binding (melting temperature shift); set-up: human DDX3X (residues 132-607, UniProtID: 000571, produced by Proteros GmbH); purchased Proteros GmbH; details: Compound 100 µM, DDX3 4 µM
Sequence of DDX3X (O00571 132-607): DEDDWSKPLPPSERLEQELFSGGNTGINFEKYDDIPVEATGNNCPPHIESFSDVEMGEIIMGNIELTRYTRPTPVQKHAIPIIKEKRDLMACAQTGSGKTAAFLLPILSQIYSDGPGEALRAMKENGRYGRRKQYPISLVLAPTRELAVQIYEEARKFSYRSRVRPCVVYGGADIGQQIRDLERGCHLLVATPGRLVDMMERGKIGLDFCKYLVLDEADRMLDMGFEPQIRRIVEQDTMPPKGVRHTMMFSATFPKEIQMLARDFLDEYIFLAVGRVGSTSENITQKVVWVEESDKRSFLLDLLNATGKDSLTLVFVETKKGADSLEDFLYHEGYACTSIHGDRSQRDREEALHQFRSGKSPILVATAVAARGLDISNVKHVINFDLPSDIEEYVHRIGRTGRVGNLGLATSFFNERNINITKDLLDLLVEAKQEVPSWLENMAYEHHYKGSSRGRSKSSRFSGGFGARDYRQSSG
From the text: The binding of compounds to DDX3X have been assessed by nanoDSF analysis (NanoTemper Technologies GmbH, Flößergasse 4, 81369 München, Germany). NanoDSF technology is a Differential Scanning Fluorimetry method which measures the protein stability with high resolution without the need of a dye. In particular it measures the changes of the intrinsic tryptophan fluorescence at 330 and 350 nm and it is used to determine the melting temperature of a protein. In the folded state the residues of tryptophan are buried in the hydrophobic core. During denaturation the residues are more exposed and the fluorescence changes in both intensity and wavelength. In a typical experiment, the protein is mixed with the ligand in the reaction buffer and transferred into a capillary. The fluorescence is monitored over temperature gradient between 20 and 95°C with an increment of 2.5°C per minute. The interaction of the ligand to the folded state of the protein shifts the protein melting temperature (Tm) at higher or lower temperature.
Experimental conditions: the experiments were conducted with the device Prometheus NT.48 (NanoTemper Technologies GmbH), the enzyme used was the human DDX3X (residues 132-607, UniProtID: 000571, produced by Proteros GmbH). The assessed compounds were dissolved in pure DMSO adequate to obtain a concentration of compound of 100µM and DMSO 1% (v:v) in final solution. Reaction buffer for DDX3X was 20 mM HEPES, pH 7.5, 0.5 mM TCEP, 500 mM NaCl, 10% (v:v) Glycerin, with a final reaction volume of 10 µL and a final DMSO concentration of 1% (v:v). The reaction was performed in "High sensitivity capillaries" in the range of 20-95°C with a heating rate of 2.5°C/min, with an incubation time of 60 minutes.
• 1) Add appropriate volume of target enzyme in reaction buffer • 2) Add compound(s) in 100% DMSO (1% final DMSO conc.) • 3) Fill the capillary • 4) Measure fluorescence
The assay development was performed with DDX3X protein alone showing a Tm at 54.6 °C.
Binding of compound 5 was assessed with the NanoDSF technique, evaluating the association of the aforementioned compound with APO DDX3X and in presence of a competitor for the ATP binding site, Adenylyl imidodiphosphate (AMPPNP) to assess competition of compound 5 for the DDX3X ATP binding site. Table 6. Final protein and compound concentrations in the various assay setup:
All the measures were performed in triplicate and the average (Mean Tm) and standard deviation (SD) were calculated with the following equations: [formula] and SD = sqrt((∑((Tm−Mean Tm))^2)/(n−1)) [formula]
A change of 5xSD from the 1% DMSO control mean is considered to be a significant Tm change. Test of DDX3X with 1% DMSO was performed to obtain the reference melting temperature of the protein alone. Compounds are considered as binders if the Tm shifts by >= 5 times the standard deviation of the control (protein in the absence of compound). Table 7. DDX3X melting temperatures (Tm) at various experimental conditions

CCCCc1cn(-c2ccc(-c3nnc(-c4ccccc4C(F)(F)F)o3)cc2)nn1 [Compound 5]
% Remaining ± SD (Plasma stability; 0 minutes): 100.0 ± 1.0%
% Remaining ± SD (Plasma stability; 10 minutes): 107.1 ± 4.1%
% Remaining ± SD (Plasma stability; 30 minutes): 103.3 ± 2.3%
% Remaining ± SD (Plasma stability; 60 minutes): 99.0 ± 6.8%
% Remaining ± SD (Plasma stability; 120 minutes): 104.8 ± 5.6%
Comment (Tm shift) (DDX3X; AMPPNP 100 µM): significant Tm shift to higher Tm, compound interference
Mean Tm (DDX3X; AMPPNP 100 µM): 56.8 °C
Comment (Tm shift) (DDX3X; no AMPPNP): significant Tm shift to higher Tm, compound interference
Mean Tm (DDX3X; no AMPPNP): 56.9 °C
